Data: ChEMBL document CHEMBL4706552, “Discovery of 4-methyl-N-(4-((4-methylpiperazin- 1-yl)methyl)-3-(trifluoromethyl)phenyl)-3-((6-(pyridin-3-yl)-1H-pyrazolo[3,4-d]pyrimidin-4-yl)-oxy)benzamide as a potent inhibitor of RET and its gatekeeper mutant” (Eur J Med Chem, 2020)
Calls of active or inactive are those of the source. The calls are words filed in the database; no cut-off is given here.

Key:
[1] = biological target: Proto-oncogene tyrosine-protein kinase receptor Ret (Homo sapiens, UniProt P07949, V804M); assay: Inhibition of recombinant human N-terminal GST-HIS6 fused RET V804M mutant C-terminal domain (H658 to S1114 residues) expressed in Sf9 insect cells using TRK-C-derived peptide as substrate in presence of [33P]-ATP by filter binding assay
Chain of Proto-oncogene tyrosine-protein kinase receptor Ret (Homo sapiens, UniProt P07949, V804M) (P07949 29-1114 V804M limits assumed): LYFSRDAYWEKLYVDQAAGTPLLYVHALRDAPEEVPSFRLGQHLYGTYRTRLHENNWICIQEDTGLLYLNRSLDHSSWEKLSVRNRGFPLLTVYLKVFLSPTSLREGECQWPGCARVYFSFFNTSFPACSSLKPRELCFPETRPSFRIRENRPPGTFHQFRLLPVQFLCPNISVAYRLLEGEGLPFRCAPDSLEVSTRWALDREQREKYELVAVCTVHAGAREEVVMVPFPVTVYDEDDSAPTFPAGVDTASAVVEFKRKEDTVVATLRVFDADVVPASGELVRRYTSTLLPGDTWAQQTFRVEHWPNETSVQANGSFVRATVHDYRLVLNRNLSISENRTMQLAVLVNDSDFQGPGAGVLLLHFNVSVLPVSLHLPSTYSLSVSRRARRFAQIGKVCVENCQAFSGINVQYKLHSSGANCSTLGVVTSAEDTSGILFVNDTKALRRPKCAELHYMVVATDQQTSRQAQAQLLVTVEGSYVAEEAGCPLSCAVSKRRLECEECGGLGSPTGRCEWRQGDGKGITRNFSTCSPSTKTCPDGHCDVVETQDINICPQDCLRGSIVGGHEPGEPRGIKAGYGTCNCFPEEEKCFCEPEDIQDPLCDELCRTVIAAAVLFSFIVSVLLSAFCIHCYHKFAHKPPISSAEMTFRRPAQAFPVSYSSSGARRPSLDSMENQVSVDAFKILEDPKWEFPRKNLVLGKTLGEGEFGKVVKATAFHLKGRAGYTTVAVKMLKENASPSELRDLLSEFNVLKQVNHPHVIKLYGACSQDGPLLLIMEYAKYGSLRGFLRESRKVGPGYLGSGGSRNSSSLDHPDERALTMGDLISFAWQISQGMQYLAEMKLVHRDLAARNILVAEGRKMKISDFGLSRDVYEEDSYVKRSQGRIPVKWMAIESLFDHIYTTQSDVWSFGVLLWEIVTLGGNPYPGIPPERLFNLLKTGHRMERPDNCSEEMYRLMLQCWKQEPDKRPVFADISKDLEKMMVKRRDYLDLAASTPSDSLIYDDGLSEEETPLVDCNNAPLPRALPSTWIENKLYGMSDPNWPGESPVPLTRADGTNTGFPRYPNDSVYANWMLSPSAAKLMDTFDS

[2] = Tmax in Sprague-Dawley rat at 1 mg/kg, iv; type: ADME, organism-based; details: in vivo
BaF3 [3] = assay: Induction of apoptosis in KIF5B-RET V804M mutant fusion protein expressing mouse BaF3 cells implanted in BALB/c mouse assessed as increase in cleaved PARP level at 30 to 50 mg/kg, iv administered once daily for 7 days measured 4 hrs post last dose by Western blot analysis; type: functional, organism-based; details: dose 30-50 mg/kg, time 7.0 day
[4] = biological target: Coiled-coil domain-containing protein 6/Tyrosine-protein kinase receptor RET (Homo sapiens) (UniProt P07949+Q16204); assay: Inhibition of CCDC6-RET fusion protein (unknown origin) expressed in mouse BaF3 cells assessed as reduction in AKT phosphorylation at 10 to 500 nM measured after 4 hrs by Western blot analysis; type: cell-based; details: dose 10-500 nM
Chain of Coiled-coil domain-containing protein 6/Tyrosine-protein kinase receptor RET (Homo sapiens) (P07949 29-1114 limits assumed): as the sequence (P07949 29-1114 V804M limits assumed) above, with M776V counted along it
Chain of Coiled-coil domain-containing protein 6/Tyrosine-protein kinase receptor RET (Homo sapiens) (Q16204 2-474 partner limits assumed): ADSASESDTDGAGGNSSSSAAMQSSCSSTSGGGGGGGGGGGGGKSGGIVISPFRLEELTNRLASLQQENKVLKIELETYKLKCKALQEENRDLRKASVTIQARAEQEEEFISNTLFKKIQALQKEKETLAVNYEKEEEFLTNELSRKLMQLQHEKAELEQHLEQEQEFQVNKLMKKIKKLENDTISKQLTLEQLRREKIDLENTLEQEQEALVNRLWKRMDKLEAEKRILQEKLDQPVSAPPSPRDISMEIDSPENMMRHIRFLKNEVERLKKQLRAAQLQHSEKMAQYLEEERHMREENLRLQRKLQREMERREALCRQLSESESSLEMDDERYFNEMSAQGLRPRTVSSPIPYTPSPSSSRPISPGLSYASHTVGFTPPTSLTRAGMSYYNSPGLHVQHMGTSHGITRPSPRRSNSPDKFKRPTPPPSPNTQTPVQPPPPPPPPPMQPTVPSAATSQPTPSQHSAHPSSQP

BaF3 [5] = assay: Inhibition of CCDC6-RET V804M mutant fusion protein (unknown origin) expressed in mouse BaF3 cells assessed as reduction in RET phosphorylation at 10 to 500 nM measured after 4 hrs by Western blot analysis; type: cell-based; details: Homo sapiens, dose 10-500 nM
Mus musculus [6] = assay: In vivo inhibition of KIF5B-RET fusion protein in BALB/c mouse implanted with KIF5B-RET fusion protein expressing mouse BaF3 cells assessed as reduction in SHC phosphorylation at 30 to 50 mg/kg, iv administered daily for 7 days and measured 4 hrs post last dose by Western blot analysis; type: functional, organism-based; details: dose 30-50 mg/kg, time 7.0 day
[7] = AUC (0 to t) in Sprague-Dawley rat at 1 mg/kg, iv; type: ADME, organism-based; parameters: dose 1 mg/kg; details: in vivo
[8] = system: Kinesin-1 heavy chain/ Tyrosine-protein kinase receptor RET (Homo sapiens), P07949+P33176 [V804M]; assay: Inhibition of KIF5B-RET V804M mutant fusion protein (unknown origin) expressed in mouse BaF3 cells assessed as reduction in ERK phosphorylation at 500 nM measured after 4 hrs by Western blot analysis; type: cell-based
[9] = system: Proto-oncogene tyrosine-protein kinase receptor Ret (Homo sapiens), P07949 [V804L]; assay: Binding affinity to wild-type human partial length RET V804L mutant (E713 to D1014 residues) expressed in bacterial expression system assessed as residual binding level at 1 uM by kinomescan method relative to control
Chain of Proto-oncogene tyrosine-protein kinase receptor Ret (Homo sapiens), P07949 [V804L] (P07949 whole entry V804L, the tested form may be a part): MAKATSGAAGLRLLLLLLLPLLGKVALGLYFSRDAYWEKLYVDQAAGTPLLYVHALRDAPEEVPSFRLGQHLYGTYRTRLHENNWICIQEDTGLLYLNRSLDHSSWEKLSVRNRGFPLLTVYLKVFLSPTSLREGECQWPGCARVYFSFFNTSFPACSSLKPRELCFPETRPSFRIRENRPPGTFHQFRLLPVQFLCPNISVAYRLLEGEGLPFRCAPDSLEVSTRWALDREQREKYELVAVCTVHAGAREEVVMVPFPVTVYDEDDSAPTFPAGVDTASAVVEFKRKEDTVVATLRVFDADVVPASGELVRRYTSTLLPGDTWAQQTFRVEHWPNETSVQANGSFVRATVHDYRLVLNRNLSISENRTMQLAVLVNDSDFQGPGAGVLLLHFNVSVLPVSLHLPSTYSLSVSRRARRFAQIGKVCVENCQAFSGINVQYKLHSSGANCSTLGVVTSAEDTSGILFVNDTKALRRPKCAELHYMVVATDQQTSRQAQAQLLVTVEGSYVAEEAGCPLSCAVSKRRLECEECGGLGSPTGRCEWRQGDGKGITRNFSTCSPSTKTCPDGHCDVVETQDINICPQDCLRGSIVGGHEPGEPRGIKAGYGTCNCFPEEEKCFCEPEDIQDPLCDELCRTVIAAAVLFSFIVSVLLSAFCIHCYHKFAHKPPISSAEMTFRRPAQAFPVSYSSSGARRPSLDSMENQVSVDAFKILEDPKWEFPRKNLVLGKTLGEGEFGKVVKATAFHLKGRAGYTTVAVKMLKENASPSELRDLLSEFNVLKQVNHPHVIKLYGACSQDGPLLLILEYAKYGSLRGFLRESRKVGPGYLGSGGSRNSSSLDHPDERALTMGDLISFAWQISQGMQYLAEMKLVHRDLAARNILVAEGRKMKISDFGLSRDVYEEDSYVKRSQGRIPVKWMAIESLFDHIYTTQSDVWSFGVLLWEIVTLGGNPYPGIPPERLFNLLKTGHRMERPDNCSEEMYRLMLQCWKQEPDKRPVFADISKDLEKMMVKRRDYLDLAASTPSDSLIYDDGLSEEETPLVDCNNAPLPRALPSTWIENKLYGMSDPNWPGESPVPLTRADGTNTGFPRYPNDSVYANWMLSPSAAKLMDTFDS

BaF3 [10] = assay: Antitumor activity against KIF5B-RET fusion protein expressing mouse BaF3 cells implanted in BALB/c mouse assessed as tumor growth inhibition at 30 to 50 mg/kg, iv administered once daily for 7 days relative to control; type: functional; details: dose 30-50 mg/kg, time 7 day
[11] = Toxicity in BALB/c mouse implanted with KIF5B-RET fusion protein expressing mouse BaF3 cells assessed as body weight loss at 30 to 50 mg/kg, iv administered daily for 7 days measured daily during compound dosing; type: organism-based; details: in vivo, 168 h, dose 30-50 mg/kg, time 7 day
NCI-H3122 = assay: Antiproliferative activity against human NCI-H3122 cells measured after 48 hrs by MTS assay; type: functional
[12] = Cytotoxicity against mouse BaF3 cells assessed as reduction in cell proliferation measured after 48 hrs by MTS assay; type: cell-based
[13] = Half life in Sprague-Dawley rat at 10 mg/kg, po; type: ADME, organism-based; details: in vivo
[14] = biological target: Proto-oncogene tyrosine-protein kinase receptor Ret (Homo sapiens, UniProt P07949, V804L); assay: Inhibition of recombinant human N-terminal GST-HIS6 fused RET V804L mutant C-terminal domain (H658 to S1114 residues) expressed in Sf9 insect cells using TRK-C-derived peptide as substrate in presence of [33P]-ATP by filter binding assay
Chain of Proto-oncogene tyrosine-protein kinase receptor Ret (Homo sapiens, UniProt P07949, V804L) (P07949 29-1114 V804L limits assumed): as the sequence (P07949 29-1114 V804M limits assumed) above, with M776L counted along it

Mus musculus [15] = assay: In vivo inhibition of KIF5B-RET V804M mutant fusion protein in BALB/c mouse implanted with KIF5B-RET V804M mutant fusion protein expressing mouse BaF3 cells assessed as reduction in RET phosphorylation at 30 to 50 mg/kg, iv administered daily for 7 days and measured 4 hrs post last dose by Western blot analysis; type: functional, organism-based; details: dose 30-50 mg/kg, time 7.0 day
A-375 = assay: Antiproliferative activity against human A-375 cells measured after 48 hrs by MTS assay; type: functional
A549 = assay: Antiproliferative activity against human A549 cells measured after 48 hrs by MTS assay; type: functional
[16] = Antiproliferative activity against human SKGT4 cells measured after 48 hrs by MTS assay; type: functional
[17] = AUC (0 to infinity) in Sprague-Dawley rat at 1 mg/kg, iv; type: ADME, organism-based; parameters: route intravenous, time infinity, dose 1 mg/kg; details: in vivo
[18] = biological target: T1, Proto-oncogene tyrosine-protein kinase receptor Ret (Homo sapiens, UniProt P07949); assay: Inhibition of RET phosphorylation in human LC-2-ad cells; type: cell-based
T1 sequence (P07949 whole entry): as the sequence (P07949 whole entry V804L, the tested form may be a part) above, with L804V counted along it

[19] = AUC (0 to infinity) in Sprague-Dawley rat at 10 mg/kg, po; type: ADME, organism-based; parameters: time infinity, route oral, dose 10 mg/kg; details: in vivo
MDA-MB-231 = assay: Antiproliferative activity against human MDA-MB-231 cells measured after 48 hrs by MTS assay; type: functional
[20] = biological target: T1, Proto-oncogene tyrosine-protein kinase receptor Ret; assay: Inhibition of RET in human LC-2-ad cells assessed as reduction in SHC phosphorylation; type: cell-based
BaF3 [21] = assay: Induction of apoptosis in KIF5B-RET fusion protein expressing mouse BaF3 cells implanted in BALB/c mouse assessed as increase in cleaved PARP level at 30 to 50 mg/kg, iv administered once daily for 7 days measured 4 hrs post last dose by Western blot analysis; type: functional, organism-based; details: dose 30-50 mg/kg, time 7.0 day
BaF3 [22] = assay: Inhibition of CCDC6-RET V804M mutant fusion protein (unknown origin) expressed in mouse BaF3 cells assessed as reduction in cell proliferation measured after 48 hrs by MTS assay; type: cell-based; details: Homo sapiens
[23] = system: Proto-oncogene tyrosine-protein kinase receptor Ret (Homo sapiens), P07949 [M918T]; assay: Binding affinity to wild-type human partial length RET M918T mutant (E713 to D1014 residues) expressed in bacterial expression system assessed as residual binding level at 1 uM by kinomescan method relative to control
Chain of Proto-oncogene tyrosine-protein kinase receptor Ret (Homo sapiens), P07949 [M918T] (P07949 whole entry M918T, the tested form may be a part): as the sequence (P07949 whole entry V804L, the tested form may be a part) above, with L804V, M918T counted along it

[24] = biological target: Kinesin-1 heavy chain/ Tyrosine-protein kinase receptor RET (Homo sapiens) (UniProt P07949+P33176); assay: Inhibition of KIF5B-RET fusion protein (unknown origin) expressed in mouse BaF3 cells assessed as reduction in RET autophosphorylation at 50 nM measured after 4 hrs by Western blot analysis; type: cell-based
Chain of Kinesin-1 heavy chain/ Tyrosine-protein kinase receptor RET (Homo sapiens) (P07949 29-1114 limits assumed): as the sequence (P07949 29-1114 V804M limits assumed) above, with M776V counted along it
Chain of Kinesin-1 heavy chain/ Tyrosine-protein kinase receptor RET (Homo sapiens) (P33176 2-963 partner limits assumed): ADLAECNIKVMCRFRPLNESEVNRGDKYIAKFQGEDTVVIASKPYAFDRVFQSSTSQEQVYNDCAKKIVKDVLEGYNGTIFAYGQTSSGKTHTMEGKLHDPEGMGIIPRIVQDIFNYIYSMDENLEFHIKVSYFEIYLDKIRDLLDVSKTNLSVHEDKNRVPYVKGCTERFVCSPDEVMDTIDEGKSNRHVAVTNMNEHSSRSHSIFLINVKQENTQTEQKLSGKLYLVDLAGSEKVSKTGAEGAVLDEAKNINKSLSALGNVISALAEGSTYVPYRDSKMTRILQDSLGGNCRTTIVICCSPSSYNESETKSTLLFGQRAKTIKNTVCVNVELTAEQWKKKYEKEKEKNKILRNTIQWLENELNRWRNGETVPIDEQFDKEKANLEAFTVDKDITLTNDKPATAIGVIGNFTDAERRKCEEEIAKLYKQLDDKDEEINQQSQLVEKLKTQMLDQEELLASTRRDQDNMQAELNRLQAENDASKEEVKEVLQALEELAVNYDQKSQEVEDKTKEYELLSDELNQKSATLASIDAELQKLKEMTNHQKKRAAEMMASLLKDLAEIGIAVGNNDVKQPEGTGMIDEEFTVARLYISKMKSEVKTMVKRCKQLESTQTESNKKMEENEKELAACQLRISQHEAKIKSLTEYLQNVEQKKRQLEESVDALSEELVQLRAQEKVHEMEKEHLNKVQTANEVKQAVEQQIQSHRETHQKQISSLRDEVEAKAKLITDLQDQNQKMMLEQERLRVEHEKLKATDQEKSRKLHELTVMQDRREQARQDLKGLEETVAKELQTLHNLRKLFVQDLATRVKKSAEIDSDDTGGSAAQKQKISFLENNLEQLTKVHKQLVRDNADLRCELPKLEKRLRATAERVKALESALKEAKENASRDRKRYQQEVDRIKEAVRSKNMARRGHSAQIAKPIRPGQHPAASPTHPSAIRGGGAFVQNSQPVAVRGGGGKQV

Mus musculus [25] = assay: In vivo inhibition of KIF5B-RET fusion protein in BALB/c mouse implanted with KIF5B-RET fusion protein expressing mouse BaF3 cells assessed as reduction in RET phosphorylation at 30 to 50 mg/kg, iv administered daily for 7 days and measured 4 hrs post last dose by Western blot analysis; type: functional, organism-based; details: dose 30-50 mg/kg, time 7.0 day
[26] = system: Proto-oncogene tyrosine-protein kinase receptor Ret (Homo sapiens), P07949 [V804M]; assay: Binding affinity to wild-type human partial length RET V804M mutant (E713 to D1014 residues) expressed in bacterial expression system assessed as residual binding level at 1 uM by kinomescan method relative to control
Chain of Proto-oncogene tyrosine-protein kinase receptor Ret (Homo sapiens), P07949 [V804M] (P07949 whole entry V804M, the tested form may be a part): as the sequence (P07949 whole entry V804L, the tested form may be a part) above, with L804M counted along it

For Cc1ccc(C(=O)Nc2ccc(CN3CCN(C)CC3)c(C(F)(F)F)c2)cc1Oc1nc(-c2cccnc2)nc2[nH]ncc12, the IC50 [1] was 7.86 nM, the Tmax [2] was 4.98 min and the Activity (BaF3 [3]) was “Active”. The inhibition [4] was “Active”, the inhibition (BaF3 [5]) was “Active” and the inhibition (Mus musculus [6]) was “Dose-dependent effect”. For the same compound, the AUC(0-t) [7] was 6960 ng·h/mL, the inhibition [8] was “Active” and the Activity [9] was 0.8%. The TGI (BaF3 [10]) was greater than 60%, the Activity [11] was “Non-Toxic” and the GI50 (NCI-H3122) was 5680 nM. For the same compound, the GI50 at 48 h [12] was 8030 nM, the half-life [13] was 7.59 h and the IC50 [14] was 15.1 nM. The inhibition (Mus musculus [15]) was “Dose-dependent effect”, the GI50 (A-375) was 2950 nM and the GI50 (A549) was 3390 nM. For the same compound, the GI50 [16] was 5370 nM, the AUC(0-inf) [17] was 7010 ng·h/mL and the inhibition [18] was “Active”. The AUC(0-inf) [19] was 2340 ng·h/mL, the GI50 (MDA-MB-231) was 2430 nM and the inhibition [20] was “Active”. For the same compound, the Activity (BaF3 [21]) was “Active”, the GI50 (BaF3 [22]) was 45 nM and the Activity [23] was 0%. For the same compound, the inhibition [24] was “Dose-dependent effect”, the inhibition (Mus musculus [25]) was “Dose-dependent effect” and the Activity [26] was 0.25%.
